Each block holds one molecule with its values, some of them ahead of it. Calls of active or inactive are those of the source. No cut-off for these calls is given here.
Key:
[1] = molecular target: T1, Tyrosinase (Agaricus bisporus, UniProt O42713); assay: Inhibition of monophenolase activity of mushroom tyrosinase using L-tyrosine as substrate incubated for 10 mins by UV-Visible spectrophotometric analysis
T1 sequence (O42713 whole entry): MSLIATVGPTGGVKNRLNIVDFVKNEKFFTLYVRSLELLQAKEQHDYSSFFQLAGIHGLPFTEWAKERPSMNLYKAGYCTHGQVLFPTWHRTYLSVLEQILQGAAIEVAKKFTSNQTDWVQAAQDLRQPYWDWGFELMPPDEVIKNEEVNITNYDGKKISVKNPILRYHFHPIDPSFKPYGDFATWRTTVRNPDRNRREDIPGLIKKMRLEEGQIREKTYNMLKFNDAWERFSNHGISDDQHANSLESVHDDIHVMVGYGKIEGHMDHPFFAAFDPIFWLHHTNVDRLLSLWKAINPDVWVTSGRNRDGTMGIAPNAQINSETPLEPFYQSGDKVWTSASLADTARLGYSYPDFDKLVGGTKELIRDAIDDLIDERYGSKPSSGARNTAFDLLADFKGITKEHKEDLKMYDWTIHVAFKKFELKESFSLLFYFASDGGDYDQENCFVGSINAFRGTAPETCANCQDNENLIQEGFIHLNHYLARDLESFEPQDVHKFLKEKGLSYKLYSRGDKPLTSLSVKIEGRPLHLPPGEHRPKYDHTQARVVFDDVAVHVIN

[2] = molecular target: T1, Tyrosinase; assay: Inhibition of diphenolase activity of mushroom tyrosinase using L-DOPA as substrate incubated for 10 mins by UV-Visible spectrophotometric analysis
[3] = molecular target: T2, Tyrosinase (Agaricus bisporus) (UniProt O42713); assay: Reversible inhibition of diphenolase activity of mushroom tyrosinase using L-DOPA as substrate at 4.17 to 33.33 uM incubated for 10 mins by UV-Visible spectrophotometric analysis
T2 sequence (whole entry): T1 sequence (O42713 whole entry)

[4] = molecular target: T1, Tyrosinase; assay: Inhibition of diphenolase activity of mushroom tyrosinase using L-DOPA as substrate assessed as enzyme-inhibitor complex incubated for 10 mins by Lineweaver-Burk plot method
[5] = molecular target: T1, Tyrosinase; assay: Inhibition of diphenolase activity of mushroom tyrosinase using L-DOPA as substrate assessed as enzyme-substrate-inhibitor complex incubated for 10 mins by Lineweaver-Burk plot method
[6] = molecular target: T2, Tyrosinase (Agaricus bisporus); assay: Competitive-uncompetitive-mixed type inhibition of diphenolase activity of mushroom tyrosinase using L-DOPA as substrate incubated for 10 mins by Lineweaver-Burk plot method
[7] = Copper reducing activity in 0.4 mM cupric sulfate solution assessed as cuprous ion formation up to 0.15 mM after 10 mins by bathocuproinedisulfonic acid dye based spectrophotometric analysis; type: physicochemical
[8] = Copper chelating activity in pH 5 copper sulfate solution at 2.857 mM after 10 mins by tetramethylmurexide dye based assay relative to control; type: physicochemical; details: pH 5, 10 min, 2857 µM
[9] = Copper chelating activity in pH 7.4 copper sulfate solution at 2.857 mM after 10 mins by tetramethylmurexide dye based assay relative to control; type: physicochemical; details: pH 7.4, 10 min, 2857 µM

SMILES: CC(C)[C@H](NC(=O)[C@@H](N)Cc1ccccc1)C(=O)NCc1cc(=O)c(O)c[nH]1
IC50 [1]: 14.3 µM

SMILES: N[C@@H](Cc1ccccc1)C(=O)N[C@@H](Cc1ccccc1)C(=O)NCc1cc(=O)c(O)c[nH]1
IC50 [1]: 2.79 µM | IC50 [2]: 26.2 µM | inhibition [3]: Active | Ki [4]: 34.4 µM | Ki [5]: 79 µM | inhibition [6]: Active

SMILES: CC(C)C[C@H](NC(=O)[C@@H](N)Cc1ccccc1)C(=O)NCc1cc(=O)c(O)c[nH]1
IC50 [1]: 6.93 µM

Further lines, results first:

IC50 [1]: 15.6 µM
SMILES: CC[C@H](C)[C@H](NC(=O)OCc1ccccc1)C(=O)OCc1cc(=O)c(O)c[nH]1

IC50 [1]: 1.95 µM | IC50 [2]: 8.97 µM | inhibition [3]: Active | Ki [4]: 17.2 µM | Ki [5]: 22.1 µM | inhibition [6]: Active | Activity [7]: Active | Activity [8]: 97.52% | Activity [9]: 88.92%
SMILES: O=C(N[C@@H](Cc1ccccc1)C(=O)OCc1cc(=O)c(O)c[nH]1)OCc1ccccc1

IC50 [1]: 28.7 µM
SMILES: CC(C)C[C@H](NC(=O)OCc1ccccc1)C(=O)OCc1cc(=O)c(O)c[nH]1

IC50 [1]: 12.5 µM
SMILES: CC(C)[C@H](NC(=O)OCc1ccccc1)C(=O)OCc1cc(=O)c(O)c[nH]1

IC50 [1]: 11.8 µM
SMILES: C[C@H](NC(=O)OCc1ccccc1)C(=O)OCc1cc(=O)c(O)c[nH]1
